Assay results from US11712438B2, “Phenyl derivatives as PGE2 receptor modulators” (IDORSIA PHARMACEUTICALS LTD, priority 2017, dated 2023).

How the values were obtained:
Assay in all cases: cell-based
[1] = biological target: PTGER2 (EP2) (Homo sapiens, UniProt P43116)
[2] = biological target: PTRGER4 (EP4) (Homo sapiens, UniProt P35408);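 further: assay plate preincubated 15 min at 37 °C, after which PGE2 was added at 20 nM final and incubation continued 120 min at 37 °C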
[3] = biological target: EP2 (Homo sapiens, UniProt P43116);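 further: SF295 glioblastoma cells with endogenous EP2 only, PGE2-stimulated cAMP accumulation read by HTRF competitive immunoassay, 45 min pre-incubation then 30 min at room temperature, IBMX in buffer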
EP2, sequence (P43116 whole entry): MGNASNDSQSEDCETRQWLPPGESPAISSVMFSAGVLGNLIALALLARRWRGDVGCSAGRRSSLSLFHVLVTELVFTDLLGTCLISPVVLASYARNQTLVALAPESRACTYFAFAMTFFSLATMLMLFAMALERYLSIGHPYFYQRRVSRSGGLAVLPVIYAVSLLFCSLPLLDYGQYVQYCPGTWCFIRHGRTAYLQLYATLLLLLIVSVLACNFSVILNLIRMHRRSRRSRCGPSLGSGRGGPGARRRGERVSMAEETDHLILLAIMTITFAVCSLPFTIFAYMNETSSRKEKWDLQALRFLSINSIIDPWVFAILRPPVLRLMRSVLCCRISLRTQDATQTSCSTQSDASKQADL

[4] = biological target: EP4 (Homo sapiens, UniProt P35408);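 further: inhibition of PGE2-evoked (6 nM) cAMP accumulation in BT549 breast cancer cells endogenously expressing EP4, cAMP read by HTRF competitive immunoassay after 30 min at room temperature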
EP4, sequence (P35408 whole entry): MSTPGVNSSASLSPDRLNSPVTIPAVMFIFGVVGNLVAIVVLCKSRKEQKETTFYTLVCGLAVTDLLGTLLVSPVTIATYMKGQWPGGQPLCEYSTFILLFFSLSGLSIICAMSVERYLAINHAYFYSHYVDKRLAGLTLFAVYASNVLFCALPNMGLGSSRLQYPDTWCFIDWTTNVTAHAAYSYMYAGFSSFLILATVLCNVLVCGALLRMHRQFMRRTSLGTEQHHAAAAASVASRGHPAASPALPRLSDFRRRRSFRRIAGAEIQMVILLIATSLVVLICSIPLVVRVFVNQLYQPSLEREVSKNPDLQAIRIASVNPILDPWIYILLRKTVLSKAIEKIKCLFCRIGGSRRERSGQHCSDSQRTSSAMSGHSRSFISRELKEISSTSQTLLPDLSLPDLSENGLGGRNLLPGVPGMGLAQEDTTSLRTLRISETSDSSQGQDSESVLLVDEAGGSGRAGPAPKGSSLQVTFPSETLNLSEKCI
Excerpt: Human tumor cell lines expressing endogenously either EP4 or EP2 are used and cAMP accumulation in cells upon PGE2 stimulation is monitored.
As a detection method for cAMP the HTRF (homogeneous time resolved fluorescence) Cisbio kit (HTRF cAMP dynamic 2 kit 20′000 tests Cisbio Cat. #62AM4PEC) was used, which is based on a competitive immunoassay using a Cryptate-labeled anti-cAMP antibody and d2-labeled cAMP. Native cAMP produced by cells or unlabeled cAMP (for the standard curve) compete with exogenously added d2-labeled cAMP (acceptor) for binding to monoclonal anti-cAMP-Eu3+ Cryptate (donor). A FRET signal (Fluorescence Resonance Energy Transfer) is obtained only if the labeled anti-cAMP antibody binds the d2 labelled cAMP, thus the specific signal (i.e. energy transfer) is inversely proportional to the concentration of cAMP in the standard or sample.
The BT549 cells (NCI/No. 0507282) are detached from culture dishes with a cell dissociation buffer (Invitrogen, 13151-014), and collected in growing medium (GM: RPM11640 (Invitrogen 21875)/10% FCS, 1% Penicilin/streptomycin). Cells are counted washed and resuspended in assay buffer (AB; HBSS, 20 mM HEPES, 0.2% BSA; 2 mM IBMX). 4′000 cells in 5 μl of AB are seeded per well of a small volume 384 well plate (black with flat bottom, Greiner 784076).
Stock solutions of test compounds are made at a concentration of 10 mM in DMSO, and serially diluted in DMSO to concentrations required for inhibition dose response curves (tested concentration range 30 μM-0.4 nM; 30 μM-0.015 nM or 1 μM-0.01 nM).
PGE2 (Cayman 14010, stock solution: 6 μM in DMSO) is used as agonist at 6 nM final concentration, corresponding to EC80.
Two point five microliters of diluted compounds are transferred into the assay plate. Plate is pre-incubated 45 minutes at room temperature. Subsequently, 2.5 microliters of PGE2 (final conc. 6 nM) are transferred into the assay plate. Plate is incubated 30 minutes at room temperature.
For each compound concentration the percentage of cAMP compared to DMSO control value as average±STDEV (each concentration is measured in duplicate) is calculated.
When compounds were measured multiple times, mean values are given.

PTGER2 (EP2), sequence (P43116 whole entry): as the sequence (P43116 whole entry) above
PTRGER4 (EP4), sequence (P35408 whole entry): as the sequence (P35408 whole entry) above

SMILES | IC50 [1] | IC50 [2] | IC50 [3] | IC50 [4]
Cc1ccc(CCNc2cc(-c3cc(F)c(C(=O)O)s3)ncn2)cc1 [Example 1, 3-Fluoro-5-[6-(2-p-tolyl-ethylamino)-pyrimidin-4-yl]thiophene-2-carboxylic acid] | 240 nM | 402 nM | 86 nM | 65 nM
COc1cc(SC)ccc1CCNc1cc(-c2ccc(C(=O)O)c(SC)c2)ncn1 [Example 2, 4-{6-[2-(2-Methoxy-4-methylsulfanyl-phenyl)-ethylamino]-pyrimidin-4-yl}-2-methylsulfanyl-benzoic acid] | 438 nM | 550 nM | 79 nM | 112 nM
COc1cc(C)c(C)cc1CCNc1cc(-c2ccc(C(=O)O)c(SC)c2)ncn1 [Example 3, 4-{6-[2-(2-Methoxy-4,5-dimethyl-phenyl)-ethylamino]-pyrimidin-4-yl}-2-methylsulfanyl-benzoic acid] | 86 nM | 420 nM | 45 nM | 46 nM
CCOc1cc(-c2cc(NCCc3ccc(SC)cc3OC)ncn2)ccc1C(=O)O [Example 6, 2-Ethoxy-4-{6-[2-(2-methoxy-4-methylsulfanyl-phenyl)-ethylamino]-pyrimidin-4-yl}-benzoic acid] | 1350 nM | 1210 nM | 702 nM | 573 nM
CCOc1cc(-c2cc(NCCc3cc(C)c(C)cc3OC)ncn2)ccc1C(=O)O [Example 7, 2-Ethoxy-4-{6-[2-(2-methoxy-4,5-dimethyl-phenyl)-ethylamino]-pyrimidin-4-yl}-benzoic acid] | 441 nM | 759 nM | 205 nM | 140 nM
CCOc1cc(-c2cc(NCCc3ccc(Br)cc3)ncn2)ccc1C(=O)O [Example 11, 4-{6-[2-(4-Bromo-phenyl)-ethylamino]-pyrimidin-4-yl}-2-ethoxy-benzoic acid] | 358 nM | 1090 nM | 311 nM | 440 nM
CCOc1cc(-c2cc(NCCc3ccc(Br)cc3)ncn2)ccc1-c1noc(=O)[nH]1 [Example 15, 3-(4-{6-[2-(4-Bromo-phenyl)-ethylamino]-pyrimidin-4-yl}-2-ethoxy-phenyl)-[1,2,4]oxadiazol-5(4H)-one] | 368 nM | 56 nM | 198 nM | 42 nM
CCOc1cc(-c2cc(NCCc3ccc(Br)cc3)ncn2)sc1CC(=O)O [Example 17, (5-{6-[2-(4-Bromo-phenyl)-ethylamino]-pyrimidin-4-yl}-3-ethoxy-thiophen-2-yl)-acetic acid] | 202 nM | 147 nM | 189 nM | 293 nM
CSc1cc(-c2cc(NCCc3ccc(C)c(C)c3)ncn2)ccc1C(=O)O [Example 18, 4-{6-[2-(3,4-Dimethyl-phenyl)-ethylamino]-pyrimidin-4-yl}-2-methylsulfanyl-benzoic acid] | 481 nM | 168 nM | 130 nM | 173 nM
CCOc1cc(-c2cc(NCCc3ccc(Br)cc3F)ncn2)ccc1C(=O)O [Example 21, 4-{6-[2-(4-Bromo-2-fluoro-phenyl)-ethylamino]-pyrimidin-4-yl}-2-ethoxy-benzoic acid] | 248 nM | 779 nM | 193 nM | 80 nM
CCOc1cc(-c2cc(NCCc3ccccc3Br)ncn2)sc1C(=O)O [Example 70, 5-{6-[2-(2-Bromo-phenyl)-ethylamino]-pyrimidin-4-yl}-3-ethoxy-thiophene-2-carboxylic acid] | 260 nM | – | 139 nM | 554 nM
CCOc1cc(-c2cc(NCCc3ccccc3Cl)ncn2)sc1C(=O)O [Example 78, 5-{6-[2-(2-Chloro-phenyl)-ethylamino]-pyrimidin-4-yl}-3-ethoxy-thiophene-2-carboxylic acid] | 176 nM | – | 149 nM | 458 nM
